Experimental findings from US7855297B2, “Amide derivatives and medicinal use thereof” (Mitsubishi Tanabe Pharma Corporation, priority 2000, dated 2010) are described below.

The test has as its target T1, C5a receptor (Homo sapiens, UniProt P21730).
T1 construct: U-937 cell was stimulated with 1 mM dibutyryl cyclic AMP (dcAMP, SIGMA) for 2 days to express the C5a receptor; endogenous in cells; host or cells: U-937 cells (human histiocytic lymphoma) differentiated with 1 mM dibutyryl cAMP for 2 days; whole cells, stored frozen and thawed before use
T1 sequence (P21730 1-350): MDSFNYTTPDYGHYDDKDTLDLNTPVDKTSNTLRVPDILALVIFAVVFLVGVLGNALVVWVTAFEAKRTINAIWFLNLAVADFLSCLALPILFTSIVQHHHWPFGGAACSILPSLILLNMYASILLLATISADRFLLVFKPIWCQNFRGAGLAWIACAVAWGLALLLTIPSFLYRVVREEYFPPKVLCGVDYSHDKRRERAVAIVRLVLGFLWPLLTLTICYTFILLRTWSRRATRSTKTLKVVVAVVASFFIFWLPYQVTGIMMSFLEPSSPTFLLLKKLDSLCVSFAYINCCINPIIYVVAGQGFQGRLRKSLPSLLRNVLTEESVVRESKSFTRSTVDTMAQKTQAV
Kind of test: C5a receptor binding assay ([125I]-human C5a, dcAMP-U937 cells). The note with it: [125I]-C5a 200 pM, 4° C., 2 hr, read-out: IC50 value, concentration at which binding of [125I]-human C5a is inhibited by 50%. On the procedure:
The C5a receptor binding inhibitory action of C5a and the test compound was evaluated by a receptor binding assay comprising reacting human cell line U-937 (human histiocytic lymphoma line), which expresses the C5a receptor, with [^125I]-human C5a (Amersham Pharmacia Biotech) in a MultiScreen (MILLIPORE). First, U-937 cell was stimulated with 1 mM dibutyryl cyclic AMP (dcAMP, SIGMA) for 2 days to express the C5a receptor (dcAMP-U937 cell), and suspended in a binding buffer [50 mM HEPES, 1 mM CaCl2, 5 mM MgCl2, 0.5% bovine albumin (BSA, SIGMA), 0.02% NaN3 (pH 7.2)] and stored at −80° C. […] After drying the MultiScreen, the radioactivity on the filter was measured using a gamma counter.
The rate (% inhibition) of inhibition of C5a binding by the test compound was calculated by the following formula using the count value obtained without addition of the test compound as Total, the count value obtained with addition of non-labeled C5a as Non, and the count value obtained with addition of the test compound as Test. % Inhibition=100−[(Test-Non)/(Total-Non)]×100 […]

In the case of `CC(C)c1ccc(N(Cc2ccc(N(C)C)cc2)C(=O)C2CCCc3ccccc32)cc1` (stereo not shown) [Example 4, N-[(4-dimethylaminophenyl)methyl]-N-(4-isopropylphenyl)-1,2,3,4-tetrahydronaphthalene-1-carboxamide], the IC50 came out at 104 nM.
